# Test results: patent publication US8445511B2, “Quinoline or quinoxaline derivatives for treating neurodegenerative diseases” (Centre National de la Recherche Scientifique (SNRS), priority 2008, dated 2013)
# Test system: fetal dopaminergic neurons in culture
# Assay: Neuroprotection and differentiation of dopaminergic (TH+) neurons in primary culture of rat embryo mesencephalon (spontaneous degeneration model)
# Type: cell-based
# Design: key to Diff (qualitative assessment of neuron differentiation): + indicates that the neurons have a morphology similar to that of the control; ++ and +++ indicate the presence of neurons whose extensions are longer and more numerous than the control neurons; ++ and +++ indicate the presence of neurons whose extensions are longer and more numerous than the control neurons; − indicates that the neurons have neurites that are shorter and less numerous than the control neurons
# Settings: for Diff (qualitative assessment of neuron differentiation): dopaminergic neurons in culture; for viability at 0.1 µM: Rattus norvegicus, Neuron, 192 h, read-out: % Neurons relative to the control ±SEM
# Protocol: Dissection consists in extracting the embryos from the uterus of a rat at fifteen days of gestation. The brain of each embryo is then dissected under a binocular magnifier in order to extract the ventral mesencephalon.
# The mesencephalons are gathered in a flask containing 2 ml of L15 medium and then mechanically dissociated (30 times), and then 5 ml of L15 medium are added. The suspension is left to rest for 8 minutes. 5 ml of the supernatant are recovered in a new flask and the cells are dissociated again (30 times). 5 ml of L15 are again added and the suspension is left to rest for 8 minutes. 5 ml of supernatant are added to the preceding. The cells thus extracted are then centrifuged for 5 minutes at 1,000 rpm. The cell pellet is taken up in Neurobasal medium supplemented with 1% B27, 1% glutamine and 1% penicillin/streptomycin mixture. The cells are then inoculated at the appropriate dilution (0.6 embryo per well on a 24-well plate and 0.4 per well on a 48-well plate). The cultures are incubated at 37° C. in a humid atmosphere enriched with 5% CO2 in a 24- or 48-well plate.
# After 24 hours, two-thirds of the medium of each well is replaced by new medium enriched with the compound of the invention to test at the appropriate dilution. The medium is replaced in the same way after 4 days of culture.
# At 8 days of culture, the cells are fixed by a 4% formaldehyde solution and then washed three times with PBS. The cells then undergo several immunohistochemistry procedures: • anti-tyrosine hydroxylase (TH) visualized by a secondary antibody coupled to a fluorochrome that emits in the red spectrum (Cy3). • anti-MAP2 (MAP=microtubule-associated protein) (neuron marker) visualized by a secondary antibody coupled to a fluorochrome that emits in the green spectrum (alexa488). • DAPI (4′,6-diamidino-2-phenylindole), a nuclear marker that emits in the blue spectrum.
# Neuroprotection is evaluated by counting TH positive neurons directly under the microscope or MAP2 positive on images, at 15 images per well, expressed as a percentage of the untreated control. The experiments include three wells per condition. Three independent experiments are carried out under these conditions. Total neurite length per cell calculated by the Neurite Outgrowth software by Explora Nova on 20 neurons photographed independently per well gives an indication of the state of maturation of the dopaminergic neurons.
# The compounds of the invention were tested on a model of spontaneous degeneration of dopaminergic neurons in culture.
# This model consists of culturing cells of the ventral mesencephalon of rat embryo. This part of the brain in culture contains dopaminergic neurons and other primarily GABAergic neurons. These cultures are also composed of glial cells, namely astrocytes, oligodendrocytes and microglia. This is a model of spontaneous degeneration of dopaminergic neurons which mimics certain aspects of Parkinson's disease.
# The neuroprotective effect of the compounds of the invention was evaluated by counting dopaminergic neurons (TH^+) marked by tyrosine hydroxylase (TH) immunohistochemistry after 8 days of culture. Thus the compounds were evaluated at 1 nM, 10 nM, 100 nM and 1 μM and were compared with the activity of dibutyryl cyclic AMP (db-cAMP) used as the reference product.
# In order to evaluate more quantitatively the activity of the compounds of the invention, neurite growth per cell was measured using the Neurite Outgrowth software developed by Explora Nova. A minimum of 60 neurons per condition were photographed and studied, and the results were then averaged and normalized by the number of neurons considered.
# [1] = 100 nM, survival of TH+ dopaminergic neurons after 8 days of culture
SMILES,Diff (qualitative assessment of neuron differentiation) (100 nM),viability at 0.1 µM [1],"dose-response of effect on survival of dopaminergic neurons (1 nM, 10 nM, 100 nM and 1 μM, FIG. 2)",% Neurons relative to the control ±SEM [1],"neuroprotective activity (percentage of survival of dopaminergic neurons), in words, versus reference product db-cAMP (dopaminergic neurons, 8 days of culture)"
"CCCCCCCCCCCCCCC(=O)Nc1ccc2nccnc2c1 [Compound F1, Nr-(quinoxalin-6-yl)pentadecanamide]",+++,125 ± 5.5%,,,
"CCCCCCCCCCCCCCC(=O)Nc1ccc2ncc(CCCC)nc2c1 [Compound F3, N-(3-butylquinoxalin-6-yl)pentadecanamide]",++,114 ± 3.8%,,,
"C#CC(O)CCC#Cc1cnc2ccccc2c1 (stereo not drawn) [Compound Z1, reference compound]",−,98.2 ± 6.3%,zero at all the concentrations tested,,
"CCCCCCCCCCCCCCCNc1ccc2ncc(CCCC)nc2c1 [Compound G3, N-(3-butylquinoxalin-6-yl)pentadecanamine]",++,113 ± 7%,,,
"C#CC(O)CCCCc1cnc2ccccc2c1 (stereo not drawn) [Compound Z2, reference compound]",+,118 ± 6.1%,,,
"CCCCCCCCCCCCCCC(=O)Nc1ccc2nc(CCCCCC)c(CCCC)nc2c1 [Compound F4, N-(2-hexyl-3-butylquinoxalin-6-yl)pentadecanamide]",++,101 ± 2.2%,,,
"OCCCCCCCCCCCCCCCNc1ccc2nccnc2c1 [Compound G5, 15-hydroxy-N-(quinoxalin-6-yl)pentadecylamine]",++,130 ± 7%,,,
"OCCCCCCCCCCCC#Cc1ccc2ccccc2n1 [Compound K2, 13-(quinolin-2-yl)tridec-12-yn-1-ol]",++,121 ± 3.1%,,,
"CCCCCCCCCCCCCCCNc1ccc2nc(CCCCCC)c(CCCC)nc2c1 [Compound G4, N-(2-hexyl-3-butylquinoxalin-6-yl)pentadecanamine]",++,111 ± 5.3%,,,
"CCCCCCCCCCCCCCC(=O)Nc1ccc2nc(C)cnc2c1 [Compound F2, N-(2-methylquinoxalin-6-yl)pentadecanamide]",+++,120 ± 3.1%,,,
"CCCCC#Cc1cnc2ccccc2c1 [Compound Z3, reference compound]",−,104 ± 4.2%,,,
"CCCCCCCCCCCCCCCNc1ccc2nc(C)cnc2c1 [Compound G2, N-(2-methylquinoxalin-6-yl)pentadecanamine]",+++,135 ± 4.4%,,,
"CCCC(=O)Nc1ncnc2c1ncn2[C@@H]1O[C@@H]2COP(=O)(O)O[C@H]2[C@H]1OC(=O)CCC [db-cAMP, dibutyryl cyclic AMP, reference compound]",+++,,,149.9 ± 3.6%,
"C#CC(O)CCCCCCCCCCCCCCc1ccc2ccccc2n1 (stereo not drawn) [Compound N′3, 17-(quinolin-2-yl)heptadec-1-yn-3-ol]",,,,,equal to or greater than that of the reference product
"CCCCCCCCCCCCCCCNc1ccc2nccnc2c1 [Compound G1, N-(quinoxalin-6-yl)pentadecanamine]",+++,131 ± 10.9%,,,
